ChEMBL document CHEMBL1142974, “Design, synthesis, and evaluation of the antiproliferative activity of a series of novel fused xanthenone aminoderivatives in human breast cancer cells” (J Med Chem, 2007)
pIC50: −log10 of the molar value. Calls of active or inactive are those of the source. No cut-off for these calls is given here.

What follows are compounds tested on MDA-MB-231 (assay: Antiproliferative activity against human MDA-MB-231 cells by WST-1 method after 72 hrs). Conditions: MDA-MB-231, 72 h.
Format: functional, cell-based

Row | pIC50 | Compound
1 | 5.19 | CN(C)CCn1nc2c3c(c4[nH]cnc4cc31)Oc1ccccc1-2
2 | 4.77 | Cc1nc2cc3c4c(nn3CCN(C)C)-c3ccccc3Oc4c2[nH]1
3 | 5.07 | CCN(CC)CCn1nc2c3c(c4[nH]cnc4cc31)Oc1ccccc1-2
4 | 4.74 | CCN(CC)CCn1nc2c3c(c4[nH]c(C)nc4cc31)Oc1ccccc1-2

The compounds below were run on MDA-MB-231 (assay: Growth inhibition of human MDA-MB-231 cells at 100 uM by WST-1 method after 72 hrs). Conditions: not given.
Format: functional, cell-based

Row | Compound | Activity
5 | CN(C)CCNc1cc2nc[nH]c2c2oc3ccccc3c(=O)c12 | Active
6 | CCN(CC)CCNc1cc2nc[nH]c2c2oc3ccccc3c(=O)c12 | Active
